The text below walks through data of patent US12286437B2, “Cardiac sarcomere inhibitors” (Cytokinetics, Inc., priority 2021, dated 2025).

As a reminder, the clearance is a measure of how efficiently the substance is removed, as volume per time. Read a high clearance as efficient removal. Broadly, the half-life is how long it takes for the measured level to halve.

One data set addresses T1, CYP1A2 (Homo sapiens, UniProt P05177).
T1 construct: Pooled human microsomes and selective CYP probe substrates were used; from tissue; host or cells: pooled human liver microsomes
T1 sequence (P05177 1-516): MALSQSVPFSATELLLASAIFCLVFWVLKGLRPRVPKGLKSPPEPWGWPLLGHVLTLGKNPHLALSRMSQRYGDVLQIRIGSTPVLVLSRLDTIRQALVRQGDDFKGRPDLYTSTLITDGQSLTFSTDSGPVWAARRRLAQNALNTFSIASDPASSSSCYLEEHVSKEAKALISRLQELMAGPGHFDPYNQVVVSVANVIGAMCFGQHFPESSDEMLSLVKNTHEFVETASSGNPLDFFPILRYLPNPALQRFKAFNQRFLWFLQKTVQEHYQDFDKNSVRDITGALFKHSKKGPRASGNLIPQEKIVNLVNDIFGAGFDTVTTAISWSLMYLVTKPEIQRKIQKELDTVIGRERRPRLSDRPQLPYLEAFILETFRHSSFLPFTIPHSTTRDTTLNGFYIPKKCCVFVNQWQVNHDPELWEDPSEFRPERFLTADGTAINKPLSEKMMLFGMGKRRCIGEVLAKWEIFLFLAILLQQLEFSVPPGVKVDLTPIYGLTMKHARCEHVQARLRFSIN
The data set is described as follows: Time-dependent inhibition of CYP1A2 in human liver microsomes. It is filed as in vitro ADME. The settings on record: for (% Activity NADPH T0)/(% Activity NADPH T30): fold change; for activity at 30 min, 25 µM / activity at 0 min, 25 µM / activity at 30 min, 50 µM / activity at 0 min, 50 µM: pooled human liver microsomes, human liver microsomes; for activity at 30 min, 25 µM / activity at 30 min, 50 µM: after 30 minutes incubation, read-out: % Activity NADPH T30; for activity at 0 min, 25 µM / activity at 0 min, 50 µM: time zero, read-out: % Activity NADPH T0. The procedure: An assessment of the time-dependent Inhibitory Potential of the test compounds against Principal Human Cytochrome P450 Isozymes using Human Liver Microsomes was also carried out using standard methods (Grimm et al, Drug Metab. Dispos., July; 37(7):1355-70. doi: 10.1124/dmd.109.026716, 2009). Pooled human microsomes and selective CYP probe substrates were used for in vitro assessment of test compounds at 25 and 50 μM as time-dependent inhibitors of […] human hepatic cytochrome P450 isozymes (CYP1A2, 2B6, 2C9, 2C19, 2D6, and 3A4). LC-MS/MS was used to quantify metabolite formation. The inhibition of each P450 enzyme in human liver microsomes was measured as the percentage decrease in the activity of marker metabolite formation as measured by LC-MS/MS compared to non-inhibited controls (=100% activity) at time zero and after 30 minutes incubation. The occurrence of any time dependent inhibition was then expressed as the fold change in enzyme activity at time zero relative to the activity after 30 minutes incubation.

Data set [1] is described as follows: Rat single dose pharmacokinetics. The settings on record: male, Sprague Dawley, plasma, IV; for Vd: read-out: Vss. It is filed as in vivo, Sprague Dawley rats. The protocol: Male Sprague Dawley rats were obtained from Zhejiang Vital River Laboratory Animal Technology Co., Ltd. The animals in IV group had free access to water and food. The animals in PO group were fasted overnight before dosing and provided with food 2 hours post dosing. The IV dose solution was prepared in 10% DMA/50% PG/40% HPβCD solution (40% w/v aqueous HPβCD) at a concentration of 1 mg/mL. The oral dosing suspension was prepared by suspending Test Article in 0.5% HPMC/0.1% Tween 80 in water at a concentration 0.2 mg/mL. Concentrations of IV and PO doses were measured at the end of the study. Pharmacokinetic parameters were calculated using the nominal dose values if the measured values were within 20% of the nominal values. Three rats were dosed IV via a bolus injection via caudal vein. Three rats per dose group were dosed by oral gavage. Blood samples were collected from the jugular vein cannula at predose, 5 (IV only), 15, 30 minutes, and 1, 2, 4, 6, and 24 hours post-dose. Blood volumes were replaced with an equal amount of sterile 0.9% saline. Blood samples were centrifuged and the collected plasma was stored at −80° C. for subsequent analysis. Plasma samples were analyzed for Test Article concentrations using a LC/MS/MS method. Briefly, a 50 μL aliquot of each plasma sample was mixed with 100 μL of acetonitrile that contained an internal standard. The mixture was vortexed and centrifuged. Ten (10) […] of the resulting solution was injected onto a reverse-phase C18 column and the resultant peaks detected on a LC/MS/MS equipped with a turbo ionspray ionization source. Sample concentrations below the limit of quantification (BLQ) were treated as zero for pharmacokinetic calculations. Pharmacokinetic parameters were estimated from individual animals using noncompartmental analysis of the concentration-time data (Phoenix WinNonLin software, version 64; Pharsight, Mountain View, CA). The elimination rate constant (k) was calculated as the absolute value of the slope of the linear regression of logarithm (log) of the concentration versus time for the last three data points of the concentration-time profiles. Apparent elimination half-life (t1/2) values were calculated as ln(2)/k. Area under the concentration-time curve (AUC) values were estimated using linear trapezoidal method. AUCt values were calculated from the dosing time to the last measurable concentration. AUC∞ values were calculated as the sum of the corresponding AUCt and the ratio of the last detectable concentration divided by k (AUCt-∞). Plasma clearance (CL) was calculated from Dose/AUC∞. Mean resident time (MRT) was estimated by moment analysis. Volume of distribution at steady state (Vss) was calculated from MRT∞×CL. Maximum concentration (Cmax) and time to reach Cmax (tmax) were recorded as observed. Bioavailability was calculated from the ratio of dose normalized AUC∞,po of individual rats/mean dAUC∞,iv×100% where dAUC was the dose normalized AUC value. Compounds tested were prepared in accordance with the synthetic procedures described herein.

Turning to `C[C@H]1CC[C@H](N2CC(=O)N(Cc3ccc(F)c(F)c3)C3(CN(C=O)C3)C2=O)CC1` [Compound 4, 5-(3,4-difluorobenzyl)-8-((1r,4r)-4-methylcyclohexyl)-6,9-dioxo-2,5,8-triazaspiro[3.5]nonane-2-carbaldehyde], the “(% Activity NADPH T0)/(% Activity NADPH T30)” value at CYP1A2 (CYP1A2, 25 μM) amounted to 1.1; at CYP1A2 (CYP1A2, 50 μM), 1.0.

As for `C[C@H]1CC[C@H](N2CC(=O)N(Cc3ccc(F)c(F)c3)C3(CN(C(N)=O)C3)C2=O)CC1` [Compound 5, 5-(3,4-difluorobenzyl)-8-((1r,4r)-4-methylcyclohexyl)-6,9-dioxo-2,5,8-triazaspiro[3.5]nonane-2-carboxamide], in data set [1], the clearance worked out at 71.1 mL/min/kg, the half-life is 182 min and the Vd amounted to 13.7 L/kg. Moreover, at CYP1A2 (CYP1A2, 25 μM), the “(% Activity NADPH T0)/(% Activity NADPH T30)” value amounted to 1.0; the activity at 30 min, 25 µM turned out to be 87%; the activity at 0 min, 25 µM is 89%. Also, on CYP1A2 (CYP1A2, 50 μM), the “(% Activity NADPH T0)/(% Activity NADPH T30)” value was determined as 1.1; the activity at 30 min, 50 µM turned out to be 88%; the activity at 0 min, 50 µM was determined as 99%.

With `Cc1cc(CN2C(=O)CN([C@H]3CC[C@H](C)CC3)C(=O)C23CN(C(N)=O)C3)ccc1F` [Compound 6, 5-(4-fluoro-3-methylbenzyl)-8-((1r,4r)-4-methylcyclohexyl)-6,9-dioxo-2,5,8-triazaspiro[3.5]nonane-2-carboxamide], in data set [1], the clearance is 76.6 mL/min/kg, the half-life was 120 min and the Vd was found to be 10.1 L/kg. Besides, on CYP1A2 (CYP1A2, 25 μM), the “(% Activity NADPH T0)/(% Activity NADPH T30)” value is listed as 1.1; the activity at 30 min, 25 µM came to 85%; the activity at 0 min, 25 µM amounted to 97%. At CYP1A2 (CYP1A2, 50 μM), the “(% Activity NADPH T0)/(% Activity NADPH T30)” value is recorded as 1.0; the activity at 30 min, 50 µM was 99%; the activity at 0 min, 50 µM came out at 95%.

Consider `C[C@H]1CC[C@H](N2CC(=O)N(Cc3ccc(F)c(Cl)c3)C3(CN(C(N)=O)C3)C2=O)CC1` [Compound 7, 5-(3-chloro-4-fluorobenzyl)-8-((1r,4r)-4-methylcyclohexyl)-6,9-dioxo-2,5,8-triazaspiro[3.5]nonane-2-carboxamide], for which, in data set [1], the clearance was 61.9 mL/min/kg, the half-life is 126 min and the Vd is 12.6 L/kg. Besides, on CYP1A2 (CYP1A2, 25 μM), the “(% Activity NADPH T0)/(% Activity NADPH T30)” value turned out to be 0.9; the activity at 30 min, 25 µM was 95%; the activity at 0 min, 25 µM stood at 81%. Further, on CYP1A2 (CYP1A2, 50 μM), the “(% Activity NADPH T0)/(% Activity NADPH T30)” value stood at 0.8; the activity at 30 min, 50 µM came out at 100%; the activity at 0 min, 50 µM was 79%.

Consider `CC(C)N1CC(=O)N(Cc2ccc(Cl)c(F)c2)C2(CN(c3cccnn3)C2)C1=O` [Compound 8, 5-(4-chloro-3-fluorobenzyl)-8-isopropyl-2-(pyridazin-3-yl)-2,5,8-triazaspiro[3.5]nonane-6,9-dione], for which, in data set [1], the clearance was found to be 79.9 mL/min/kg, the half-life was 72 min and the Vd was found to be 5.22 L/kg. For the same molecule, at CYP1A2 (CYP1A2, 25 μM), the “(% Activity NADPH T0)/(% Activity NADPH T30)” value was 0.9; the activity at 30 min, 25 µM is 96%; the activity at 0 min, 25 µM was determined as 82%. Further, at CYP1A2 (CYP1A2, 50 μM), the “(% Activity NADPH T0)/(% Activity NADPH T30)” value is 0.9; the activity at 30 min, 50 µM stood at 101%; the activity at 0 min, 50 µM was found to be 86%.

As for `CC(C)N1CC(=O)N(Cc2ccc(C(F)(F)F)cc2)C2(CN(c3cccnn3)C2)C1=O` [Compound 13, 8-isopropyl-2-(pyridazin-3-yl)-5-(4-(trifluoromethyl)benzyl)-2,5,8-triazaspiro[3.5]nonane-6,9-dione], in data set [1], the clearance is 38.9 mL/min/kg, the half-life is 57 min and the Vd was determined as 2.17 L/kg. Moreover, on CYP1A2 (CYP1A2, 25 μM), the “(% Activity NADPH T0)/(% Activity NADPH T30)” value amounted to 0.9; the activity at 30 min, 25 µM stood at 99%; the activity at 0 min, 25 µM was 88%. For the same molecule, on CYP1A2 (CYP1A2, 50 μM), the “(% Activity NADPH T0)/(% Activity NADPH T30)” value is given as 0.8; the activity at 30 min, 50 µM came out at 110%; the activity at 0 min, 50 µM was 92%.

For `C[C@H]1CC[C@H](N2CC(=O)N(Cc3ccc(Cl)cc3)C3(CN(C(N)=O)C3)C2=O)CC1` [Compound 18, 5-(4-chlorobenzyl)-8-((1r,4r)-4-methylcyclohexyl)-6,9-dioxo-2,5,8-triazaspiro[3.5]nonane-2-carboxamide], in data set [1], the clearance was 63.6 mL/min/kg, the half-life is 129 min and the Vd came out at 9.48 L/kg. Besides, at CYP1A2 (CYP1A2, 25 μM), the “(% Activity NADPH T0)/(% Activity NADPH T30)” value is given as 0.9; the activity at 30 min, 25 µM worked out at 99%; the activity at 0 min, 25 µM stood at 85%. Moreover, on CYP1A2 (CYP1A2, 50 μM), the “(% Activity NADPH T0)/(% Activity NADPH T30)” value is on record as 1.0; the activity at 30 min, 50 µM stood at 90%; the activity at 0 min, 50 µM was determined as 92%.
